Source: paper PMC7321408, “One-Pot Multicomponent Synthesis and Bioevaluation of Tetrahydroquinoline Derivatives as Potential Antioxidants, α-Amylase Enzyme Inhibitors, Anti-Cancerous and Anti-Inflammatory Agents” (Molecules, 2020)
Values after ≈ are worked out from the molar mass of the structure shown. Values joined by “and” are separate entries in the source; they are usually repeats but may differ in a detail not shown here. Equal entries are not always repeated. Where two headings read alike, the source gives them in different places.

Assays:
[1] = DPPH free radical scavenging assay; conditions: mean ± SEM, n = 3; for IC50 (DPPH radical scavenging): concentration to scavenge 50% of the DPPH radicals
Procedure, shortened: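 Compounds at 200, 66.6, 22.2 and 7.4 µg/mL were mixed with DPPH radical, with DMSO as the negative control. Absorbance was read at 630 nm, and % scavenging was calculated as (1 − Abs/Abc) × 100 against the control.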

brine shrimp nauplii = test: Brine shrimp lethality bioassay; assay type: in vivo; conditions: 24 h, n = 3
Procedure, shortened: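 Ten hatched nauplii per well in artificial seawater were exposed to test compounds at 400, 200, 100 and 50 µg/mL under a lamp. Survivors counted after 24 h; percentage mortality calculated; triplicate.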

[2] = MTT cytotoxicity against raw macrophages; assay type: cell-based, albino rats; conditions: rat; for viability at 24 h, 1 µM / viability at 24 h, 10 µM / viability at 24 h, 50 µM / viability at 24 h, 100 µM: peritoneal macrophages (raw macrophages), raw macrophages, MTT, read-out: % Cell Viability; for IC50 at 24 h: primary peritoneal macrophages, mean ± SEM, n = 3
Procedure, shortened: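 Peritoneal macrophages from albino rats were treated for 24 h at 37 °C, 5% CO2 with test compounds at 100, 50, 10 and 1 µM or vehicle, from DMSO stocks. MTT was then added for 2 h, formazan dissolved in DMSO and absorbance read at 570 nm. % viability = blank-corrected sample over blank-corrected control ×100.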

Hep-2C cells = test: MTT assay against Hep-2C cells; assay type: cell-based, Human; conditions: Homo sapiens, Hep2C, read-out: IC50 (Mean ± SEM) Hep-2C Cells
Procedure, shortened: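 Human cervix carcinoma Hep-2C cells in DMEM with 10% FCS, seeded at 1 × 10^6 and exposed to test compounds for 24, 48 and 72 h. MTT (1 mg per mL) added for 4 h, formazan dissolved in DMSO, absorbance at 570 nm. Viability % versus untreated cells after blank subtraction.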

[3] = system: NO generated by LPS-induced macrophages; test: Nitric oxide assay (Griess) in LPS-induced macrophages; assay type: cell-based, murine; conditions: Mus musculus, Macrophage, 18 h, LPS 1 µg/mL, read-out: % NO Production (Mean ± SEM)
Procedure, shortened: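 Murine macrophages (1 × 10^6/well) pre-treated 2 h with compound at 100, 50, 10 or 1 µM, then LPS 1 µg/mL for 18 h. Nitrite in medium measured with Griess reagent at 540 nm against a NaNO2 standard curve; piroxicam as positive control, t-test for significance.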

Structure (SMILES): c1ccc2c(c1)CCCN2CN1CCCCC1 [SF1, 1-(Piperidine-1-ylmethyl) 1,2,3,4-tetrahahydroquinoline]
- % DPPH Scavenging Activity ([1]; 7.4 µg/mL): 11.91 ± 0.32%
- % DPPH Scavenging Activity ([1]; 22.22 µg/mL): 27.76 ± 0.11%
- % DPPH Scavenging Activity ([1]; 66.66 µg/mL): 50.08 ± 0.18%
- % DPPH Scavenging Activity ([1]; 200 µg/mL): 62.45 ± 0.12%
- IC50 (DPPH radical scavenging) [1]: 44.22 ± 0.25 µg/mL (≈ 192 µM)
- LD50 ± SEM (brine shrimp lethality) (brine shrimp nauplii): 120 ± 2.3 µg/mL and 120.8 ± 2.3 µg/mL
- viability at 24 h, 1 µM ([2]; albino): 58 ± 0.76%
- viability at 24 h, 10 µM ([2]; albino): 48 ± 1.34%
- viability at 24 h, 50 µM ([2]; albino): 47 ± 0.84%
- viability at 24 h, 100 µM ([2]; albino): 44.7 ± 0.5%
- IC50 at 24 h ([2]; albino): 6.232 ± 0.01 µM
- IC50 (Hep-2C cells; 24 h): 28 ± 1.07 µM
- IC50 (Hep-2C cells; 48 h): 21.8 ± 1.1 µM
- IC50 (Hep-2C cells; 72 h): 14.8 ± 1.07 µM
- activity at 1 µM [3]: 27.8 ± 0.45%
- activity at 10 µM [3]: 26 ± 0.43%
- activity at 50 µM [3]: 23.7 ± 0.41%
- activity at 100 µM [3]: 17.3 ± 0.35%

Structure (SMILES): CN1CCN(CN2CCCc3ccccc32)CC1 [SF5]
- % DPPH Scavenging Activity ([1]; 7.4 µg/mL): 7.76 ± 0.23%
- % DPPH Scavenging Activity ([1]; 22.22 µg/mL): 17.39 ± 0.16%
- % DPPH Scavenging Activity ([1]; 66.66 µg/mL): 28.77 ± 0.14%
- % DPPH Scavenging Activity ([1]; 200 µg/mL): 45.24 ± 0.28%
- IC50 (DPPH radical scavenging) [1]: 56.63 ± 0.32 µg/mL (≈ 231 µM)
- LD50 ± SEM (brine shrimp lethality) (brine shrimp nauplii): 94 ± 1.06 µg/mL
- viability at 24 h, 1 µM ([2]; albino): 98 ± 1.01%
- viability at 24 h, 10 µM ([2]; albino): 74 ± 0.42%
- viability at 24 h, 50 µM ([2]; albino): 67 ± 0.84%
- viability at 24 h, 100 µM ([2]; albino): 60 ± 1.2%
- IC50 at 24 h ([2]; albino): 6.181 ± 0.05 µM
- IC50 (Hep-2C cells; 24 h): 21.3 ± 1.09 µM
- IC50 (Hep-2C cells; 48 h): 18 ± 1.05 µM
- IC50 (Hep-2C cells; 72 h): 16.8 ± 1.07 µM
- activity at 1 µM [3]: 51.43 ± 0.48%
- activity at 10 µM [3]: 43 ± 0.45%
- activity at 50 µM [3]: 28.6 ± 0.44%
- activity at 100 µM [3]: 21.9 ± 0.38%

Structure (SMILES): c1ccc(N(CN2CCCc3ccccc32)c2ccccc2)cc1 [SF7, N-((3,4-dihydroquinolin-1(2H)-yl)methyl)-N-phenylaniline]
- % DPPH Scavenging Activity ([1]; 7.4 µg/mL): 9.28 ± 0.13%
- % DPPH Scavenging Activity ([1]; 22.22 µg/mL): 26.76 ± 0.17%
- % DPPH Scavenging Activity ([1]; 66.66 µg/mL): 50.48 ± 0.054%
- % DPPH Scavenging Activity ([1]; 200 µg/mL): 64.48 ± 0.18%
- IC50 (DPPH radical scavenging) [1]: 44.4 ± 0.29 µg/mL (≈ 141 µM)
- LD50 ± SEM (brine shrimp lethality) (brine shrimp nauplii): 100.8 ± 1.14 µg/mL
- viability at 24 h, 1 µM ([2]; albino): 96 ± 0.89%
- viability at 24 h, 10 µM ([2]; albino): 95 ± 0.96%
- viability at 24 h, 50 µM ([2]; albino): 84 ± 0.77%
- viability at 24 h, 100 µM ([2]; albino): 58 ± 0.83%
- IC50 at 24 h ([2]; albino): 18.64 ± 0.13 µM
- IC50 at 24 h [2]: 18.6 ± 0.13 µM
- IC50 (Hep-2C cells; 24 h): 26.7 ± 1.1 µM
- IC50 (Hep-2C cells; 48 h): 21.6 ± 1.05 µM
- IC50 (Hep-2C cells; 72 h): 16.8 ± 1.03 µM
- activity at 1 µM [3]: 69.71 ± 0.65%
- activity at 10 µM [3]: 63.12 ± 0.61%
- activity at 50 µM [3]: 21.4 ± 0.48%
- activity at 100 µM [3]: 17.5 ± 0.45%
